“And” between values parts separate entries of the source, which are not always exact repeats. Identical values can stand only once.

In assay [1] the target is EcoDgoR W181A / dgo cis-acting element (Escherichia coli, UniProt P31460, W181A). The assay is described as follows: EMSA of EcoDgoR W181A with dgo cis-acting element. The assay is classed as biochemical. The following applies: presence vs absence of 0.5 mM D-galactonate. The source says: (§1) For expression of the recombinant DgoR mutants (i.e., R102A, D146A, H150A, Q173A, R179A, W181A, D184A, T191A, H195A, S221A, R224A, and R224E), the wild-type E. coli dgoR gene on the expression plasmid pET28a was mutated using the site-directed mutagenesis method. The dgo cis-acting element region of E. coli K12 was generated by PCR and subsequently inserted into the HincII site of pUC18. The obtained plasmid was used as the template for preparation of the Cy5-labeled probes using the universal primer pair of Cy5-labeled dgoRcis-acting_F and dgoRcis-acting_R. Cy5-labeled probe (100 ng) was incubated with different amounts of dgoR or its mutants at 25°C for 20 min in a buffer comprising of 25 mM Tris-HCl (pH 8.0), 50 mM KCl, 2.5 mM MgCl2, 5% glycerol, 1 mM dithiothreitol (DTT), and 100 μg/mL sonicated salmon sperm DNA (Sangon) (total volume 20 μl). The resulting DNA-protein complexes were subjected to electrophoresis on native PAGE gels at 100 V, 4°C for 2.5 h in a running buffer containing 25 mM Tris-HCl (pH 7.8) and 250 mM glycine. After electrophoresis, gels were directly scanned for fluorescent DNAs using an ImageQuantTM LAS 4000 system (GE Healthcare). For EMSAs in the presence or absence of D-galactonate or D-glucose, 0.5 mM D-galactonate or D-glucose was applied.
In general terms: In EMSA bound probe runs differently from free probe, usually more slowly.

Assay [2] deals with EcoDgoR R102A (Escherichia coli, UniProt P31460, R102A). The assay is described as follows: MST binding assay, EcoDgoR R102A mutant. The procedure:
(§2) His-tagged DgoR and its derivatives were labeled with the NT-647-NHS dye using the Monolith NT^TM Protein Labeling Kit RED-NHS (NanoTemper Technologies) ([Magnez et al., 2017]; [Welsch et al., 2017]). Serially diluted unlabeled proteins and 100 nM of labeled DgoR or its derivatives were incubated for 15 min at room temperature in binding buffer (1.8 mM KH2PO4, 10 mM Na2HPO4, 137 mM NaCl, 2.7 mM KCl, and 0.05% Tween-20, pH 7.8) in a final volume of 20 μL. Subsequently, samples were loaded into NT.115 premium coated capillaries (NanoTemper Technologies). Binding experiments were performed using a Monolith NT.115 Pico apparatus (NanoTemper Technologies) with the following parameters: LED power 5 %, MST Power high. MST traces were analyzed between 4.00 and 5.00 s after turning on the IR-Laser. Measurements were carried out with D-galactonate. For each experiment, the unlabeled proteins were produced from independent preparations. Results were obtained with the MO Control software version 1.6. MO Affinity Analysis software version 2.3 was used to determine the fraction of the formed complex. Apparent dissociation constants (Kd) were calculated using nonlinear fitting assuming one specific binding site with the GraphPad Prism 7 software with the following formula
(§3) (whereBisMaxthemaximumtheoreticalspecificbinding,hereB=Max1).

The target in assay [3] is EcoDgoR D184A / dgo cis-acting element (Escherichia coli, UniProt P31460, D184A). The assay is described as follows: EMSA of EcoDgoR D184A with dgo cis-acting element. The note with it: D184A 8 μM, 0.5 mM D-galactonate. In kind it is biochemical.
Text: as §1

In assay [4] the target is EcoDgoR S221A / dgo cis-acting element (Escherichia coli, UniProt P31460, S221A). Kind of assay: EMSA of EcoDgoR S221A with dgo cis-acting element. The assay is classed as biochemical. The following applies: supplementation of D-galactonate.
Text: as §1

Assay [5] deals with EcoDgoR H195A / dgo cis-acting element (Escherichia coli, UniProt P31460, H195A). The assay is described as follows: EMSA of EcoDgoR H195A with dgo cis-acting element. In kind it is biochemical. The following applies: 0.5 mM D-galactonate.
Text: as §1

In assay [6] the target is EcoDgoR D146A / dgo cis-acting element (Escherichia coli, UniProt P31460, D146A). Kind of assay: EMSA of EcoDgoR D146A with dgo cis-acting element. In kind it is biochemical. The note with it: supplementation of D-galactonate.
Text: as §1

The target in assay [7] is EcoDgoR R224A (Escherichia coli, UniProt P31460, R224A). Kind of assay: MST binding assay, EcoDgoR R224A mutant. Here is the method: as §2, §3
Assay [8] deals with EcoDgoR H150A (Escherichia coli, UniProt P31460, H150A). The assay is described as follows: MST binding assay, EcoDgoR H150A mutant. The procedure:
as §2, §3

Assay [9] deals with EcoDgoR R224A / dgo cis-acting element (Escherichia coli, UniProt P31460, R224A). Kind of assay: EMSA of EcoDgoR R224A with dgo cis-acting element. In kind it is biochemical. The note with it: 0.5 mM D-galactonate.
Text: as §1

For assay [10], the target named is EcoDgoR H150A / dgo cis-acting element (Escherichia coli, UniProt P31460, H150A). Kind of assay: EMSA of EcoDgoR H150A with dgo cis-acting element. In kind it is biochemical. The note with it: 0.5 mM D-galactonate.
Text: as §1

Assay [11] concerns the target EcoDgoR R102A / dgo cis-acting element (Escherichia coli, UniProt P31460, R102A). The assay is described as follows: EMSA of EcoDgoR R102A with dgo cis-acting element. The note with it: R102A 8 μM, 0.5 mM D-galactonate. The assay is classed as biochemical.
Text: as §1

The target of assay [12] is EcoDgoR / dgo cis-acting element (Escherichia coli, UniProt P31460). Kind of assay: EMSA of WT EcoDgoR with dgo cis-acting element. The assay is classed as biochemical. The note with it: for effect on stability of EcoDgoR/DNA complex (EMSA): EDTA-treated EcoDgoR, 0.5 mM sugar plus divalent metal cation (Zn2+, Ca2+ or Mg2+); for effect on EcoDgoR/DNA complex (EMSA): EcoDgoR pre-incubated with 5 mM EDTA, sugar alone (0.5 mM), no metal added; for effect on DNA bound by EcoDgoR (EMSA): WT EcoDgoR, 0.5 mM sugar.
Text: as §1

In assay [13] the target is EcoDgoR T191A (Escherichia coli, UniProt P31460, T191A). The assay is described as follows: MST binding assay, EcoDgoR T191A mutant. The procedure: as §2, §3
In assay [14] the target is EcoDgoR W181A (Escherichia coli, UniProt P31460, W181A). Kind of assay: MST binding assay, EcoDgoR W181A mutant. The procedure: as §2, §3
Assay [15] addresses WT-EcoDgoR (Escherichia coli, UniProt P31460). Kind of assay: MST binding assay, D-galactonate to wild-type EcoDgoR. The procedure: as §2, §3
The target of assay [16] is EcoDgoR Q173A / dgo cis-acting element (Escherichia coli, UniProt P31460, Q173A). Kind of assay: EMSA of EcoDgoR Q173A with dgo cis-acting element. The assay is classed as biochemical. The following applies: Q173A 8 μM, 0.5 mM D-galactonate.
Text: as §1

Assay [17] deals with EcoDgoR R179A / dgo cis-acting element (Escherichia coli, UniProt P31460, R179A). Kind of assay: EMSA of EcoDgoR R179A with dgo cis-acting element. In kind it is biochemical. The following applies: presence vs absence of 0.5 mM D-galactonate.
Text: as §1

Assay [18] deals with EcoDgoR R224E / dgo cis-acting element (Escherichia coli, UniProt P31460, R224E). Kind of assay: EMSA of EcoDgoR R224E with dgo cis-acting element. The note with it: 0.5 mM D-galactonate. In kind it is biochemical.
Text: as §1

Assay [19] deals with EcoDgoR T191A / dgo cis-acting element (Escherichia coli, UniProt P31460, T191A). Kind of assay: EMSA of EcoDgoR T191A with dgo cis-acting element. The assay is classed as biochemical. The note with it: T191A 8 μM, 0.5 mM D-galactonate.
Text: as §1

Sequence of EcoDgoR / dgo cis-acting element (P31460 whole entry): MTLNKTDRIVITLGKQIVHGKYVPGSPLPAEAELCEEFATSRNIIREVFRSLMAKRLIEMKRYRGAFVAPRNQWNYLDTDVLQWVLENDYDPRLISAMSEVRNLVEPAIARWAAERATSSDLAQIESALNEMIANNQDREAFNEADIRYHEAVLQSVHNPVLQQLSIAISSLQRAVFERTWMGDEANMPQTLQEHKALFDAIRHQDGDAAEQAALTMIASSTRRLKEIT
Sequence of WT-EcoDgoR (P31460 whole entry): as above
Sequence of EcoDgoR R224A (P31460 whole entry R224A): as the sequence (P31460 whole entry) above, with R224A counted along it
Sequence of EcoDgoR W181A (P31460 whole entry W181A): as the sequence (P31460 whole entry) above, with W181A counted along it
Sequence of EcoDgoR R102A (P31460 whole entry R102A): as the sequence (P31460 whole entry) above, with R102A counted along it
Sequence of EcoDgoR T191A (P31460 whole entry T191A): as the sequence (P31460 whole entry) above, with T191A counted along it
Sequence of EcoDgoR R179A / dgo cis-acting element (P31460 whole entry R179A): as the sequence (P31460 whole entry) above, with R179A counted along it
Sequence of EcoDgoR R224E / dgo cis-acting element (P31460 whole entry R224E): as the sequence (P31460 whole entry) above, with R224E counted along it
Sequence of EcoDgoR R224A / dgo cis-acting element (P31460 whole entry R224A): as the sequence (P31460 whole entry) above, with R224A counted along it
Sequence of EcoDgoR W181A / dgo cis-acting element (P31460 whole entry W181A): as the sequence (P31460 whole entry) above, with W181A counted along it
Sequence of EcoDgoR R102A / dgo cis-acting element (P31460 whole entry R102A): as the sequence (P31460 whole entry) above, with R102A counted along it
Sequence of EcoDgoR Q173A / dgo cis-acting element (P31460 whole entry Q173A): as the sequence (P31460 whole entry) above, with Q173A counted along it
Sequence of EcoDgoR H195A / dgo cis-acting element (P31460 whole entry H195A): as the sequence (P31460 whole entry) above, with H195A counted along it
Sequence of EcoDgoR D184A / dgo cis-acting element (P31460 whole entry D184A): as the sequence (P31460 whole entry) above, with D184A counted along it
Sequence of EcoDgoR T191A / dgo cis-acting element (P31460 whole entry T191A): as the sequence (P31460 whole entry) above, with T191A counted along it
Sequence of EcoDgoR H150A / dgo cis-acting element (P31460 whole entry H150A): as the sequence (P31460 whole entry) above, with H150A counted along it
Sequence of EcoDgoR H150A (P31460 whole entry H150A): as the sequence (P31460 whole entry) above, with H150A counted along it
Sequence of EcoDgoR D146A / dgo cis-acting element (P31460 whole entry D146A): as the sequence (P31460 whole entry) above, with D146A counted along it
Sequence of EcoDgoR S221A / dgo cis-acting element (P31460 whole entry S221A): as the sequence (P31460 whole entry) above, with S221A counted along it

As to `O=C(O)[C@H](O)[C@@H](O)[C@@H](O)[C@H](O)CO` [D-galactonate], the “effect on DNA binding of mutant (EMSA)” value in assay [1] is “no significant difference in DNA binding affinity”; in [3], “restored their DNA binding ability to some extent”; in assay [4], “slightly decreased their ability to bind DNA”; in assay [5], “remain inability to bind DNA”; in [6], “slightly decreased their ability to bind DNA”; in assay [9], “remain inability to bind DNA”. Moreover, the “effect on DNA binding of mutant (EMSA)” value in assay [10] was “remain inability to bind DNA”; in assay [11], “restored their DNA binding ability to some extent”; in assay [16], “restored their DNA binding ability to some extent”; in assay [17], “no significant difference in DNA binding affinity”; in assay [18], “remain inability to bind DNA”; in assay [19], “restored their DNA binding ability to some extent”. Moreover, the Kd in [2] is more than 50 mM; in [7], more than 50 mM; in assay [8], 4.99 ± 1.02 mM; in assay [13], more than 50 mM; in assay [14], more than 50 mM; in assay [15] (WT EcoDgoR 100 nM, D-galactonate 305 nM to 10 mM), ~0.22 mM and 0.22 mM. In assay [15] (WT EcoDgoR after EDTA incubation), this compound displayed a Kd of 30 ± 20.3 mM. The “interaction with D-galactonate (MST)” value in assay [2] (R102A mutant), in assay [7] (R224A mutant), in assay [13] (T191A mutant) and in assay [14] (W181A mutant) was “did not interact” each time. Moreover, the “effect on stability of EcoDgoR/DNA complex (EMSA)” value in assay [12] is “decreased the stability of EcoDgoR/DNA complex”. Also, the “effect on EcoDgoR/DNA complex (EMSA)” value in assay [12] is recorded as “didn’t disrupt the formation of stable protein/DNA complexes”. Moreover, the “effect on DNA bound by EcoDgoR (EMSA)” value in [12] is “relieved DNA bound by EcoDgoR in a concentration-dependent manner”.

In the case of `OC[C@H]1OC(O)[C@H](O)[C@@H](O)[C@@H]1O` (stereo partly drawn) [D-glucose], in assay [12], the “effect on stability of EcoDgoR/DNA complex (EMSA)” value is given as “not affected significantly”, the “effect on EcoDgoR/DNA complex (EMSA)” value is listed as “didn’t disrupt the formation of stable protein/DNA complexes” and the “effect on DNA bound by EcoDgoR (EMSA)” value was “did not display such effect”.

In general, Kd refers to the free concentration of one partner at which half of the binding sites on the other are occupied at equilibrium, for simple one-to-one binding. High values mean a looser complex, low ones a tighter complex.

Values taken from PMC7674646, “Structural and Functional Analyses of the Transcription Repressor DgoR From Escherichia coli Reveal a Divalent Metal-Containing D-Galactonate Binding Pocket” (Frontiers in Microbiology, 2020).
